Results as given in patent publication US20080207617A1, “Quinoline Derivatives and Quinazoline Derivatives Inhibiting Autophosphrylation of Flt3 and Medicinal Compositions Containing the Same” (KIRIN BEER KABUSHIKI KAISHA, priority 2002, published 2008).
Structures can show the parent of a compound that is named as a salt.

Key:
[1] = test system: MV4-11; test: Cell growth inhibitory test MV4-11 (WST-1); format: cell-based, human; conditions: Homo sapiens, MV4-11, 72 h, MV4-11 cells, 3 days culture
Method: Pharmacological Test Example 2
Cell Growth Inhibitory Test
MV4-11 (ATCC number: CRL-9591) as human leukemia cells was seeded in an amount of 3×10^3 using a DMEM medium containing 10% fetal calf serum (purchased from GIBCO) in a 96-well flat bottom plate.
(§1) A solution of a test compound in dimethyl sulfoxide was added to each well and was cultured in a 5% carbon dioxide incubator for 3 days. Three days after the initiation of the culture, 10 μl of a WST-1 solution in Cell Counting Kit (purchased from Wako Pure Chemical Industries, Ltd.) was added to each well for a color reaction. After proper color development, the absorbance was measured with a microplate reader under conditions of measurement wavelength 450 nm and reference wavelength 650 nm. The growth ratio for each well was determined by presuming the absorbance without the addition of the medicament to be 100% growth ratio and the absorbance of the well without seeding of the cells to be 0% growth ratio. The concentration of the test compound was varied on several levels, the cell growth ratio for each case was determined, and the concentration of the test compound necessary for inhibiting 50% of cell growth ratio (IC50) was calculated.

[2] = test system: MOLM13; test: Cell growth inhibitory activities on cultured human leukemia cells MOLM-13 (WST-1); format: cell-based; conditions: Homo sapiens, MOLM-13, 72 h, 3 days culture
Method: Pharmacological Test Example 4
Cell Growth Inhibitory Activities on Cultured Human Leukemia Cells
as §1, with “Human leukemia cells MOLM13 (subdivided from Hayashibara Biochemical Laboratories, Inc.) were seeded in an amount of 3×10^3 using a DMEM medium containing 10% fetal calf serum (purchased from GIBCO) in a 96-well flat bottom plate. A solution” for “A solution”

Compound | IC50 [1] [nM] | IC50 [2] [nM]
CCCCCNC(=O)Nc1ccc(Oc2ccnc3cc(OC)c(OC)cc23)cc1 [Compound 23, 1-[4-(6,7-Dimethoxy-quinolin-4-yloxy)-phenyl]-3-pentyl-urea] | 2 | 4
COc1cc2nccc(Oc3ccc(NC(=O)NCC4CCCCC4)cc3)c2cc1OC [Compound 30, 1-Cyclohexylmethyl-3-[4-(6,7-dimethoxy-quinolin-4-yloxy)-phenyl]-urea] | 4 | 8
COc1cc2nccc(Oc3ccc(NC(=O)NCCC(C)(C)C)c(Cl)c3)c2cc1OC [Compound 11, 1-[2-Chloro-4-(6,7-dimethoxy-quinolin-4-yloxy)-phenyl]-3-(3,3-dimethyl-butyl)-urea hydrochloride] | 300 | 416
COc1cc2c(Oc3ccc(NC(=O)NCCC(C)(C)C)c(Cl)c3)ccnc2cc1OCCN1CCCCC1 [Compound 42, 1-{2-Chloro-4-[6-methoxy-7-(2-piperidin-1-yl-ethoxy)-quinolin-4-yloxy]-phenyl}-3-(3,3-dimethyl-butyl)-urea] | 235 | 273
CCCCNC(=O)Nc1ccc(Oc2ccnc3cc(OC)c(OC)cc23)cc1 [Compound 19, 1-Butyl 3-[4-(6,7-dimethoxy-quinolin-4-yloxy)-phenyl]-urea] | 6 | 10
COc1cc2nccc(Oc3ccc(NC(=O)NCCC(C)(C)C)c(C)c3C)c2cc1OC [Compound 7, 1-[4-(6,7-Dimethoxy-quinolin-4-yloxy)-2,3-dimethyl-phenyl]-3-(3,3-dimethyl-butyl)-urea] | 558 | 593
COc1cc2nccc(Oc3ccc(NC(=O)NCCC(C)C)cc3)c2cc1OC [Compound 29, 1-[4-(6,7-Dimethoxy-quinolin-4-yloxy)-phenyl]-3-(3-methyl-butyl)-urea] | 1 | 3
COc1cc2ncnc(Oc3ccc(NC(=O)NCCC(C)(C)C)cc3)c2cc1OC [Compound 36, 1-[4-(6,7-Dimethoxy-quinazolin-4-yloxy)-phenyl]-3-(3,3-dimethyl-butyl)-urea] | < 1 | 2
COCCCNC(=O)Nc1ccc(Oc2ccnc3cc(OC)c(OC)cc23)cc1 [Compound 24, 1-[4-(6,7-Dimethoxy-quinolin-4-yloxy)-phenyl]-3-(3-methoxy-propyl)-urea] | 18 | 24
COc1cc2c(Oc3ccc(NC(=O)NCCC(C)(C)C)c(Cl)c3)ccnc2cc1OCCN1CCCC1 [Compound 48, 1-{2-Chloro-4-[6-methoxy-7-(2-pyrrolidin-1-yl-ethoxy)-quinolin-4-yloxy]-phenyl}-3-(3,3-dimethyl-butyl)-urea] | 217 | –

Continued, values first:

IC50 [1] [nM] | IC50 [2] [nM] | Compound
57 | 138 | COc1cc2c(Oc3ccc(NC(=O)NCCC(C)(C)C)c(F)c3)ccnc2cc1OCCN1C(C)(C)CCCC1(C)C [Compound 61, 1-(3,3-Dimethyl-butyl)-3-(2-fluoro-4-{6-methoxy-7-[2-(2,2,6,6-tetramethyl-piperidin-1-yl)-ethoxy]-quinolin-4-yloxy}-phenyl)-urea]
224 | 243 | COc1cc2c(Oc3ccc(NC(=O)NCCC(C)(C)C)c(Cl)c3)ccnc2cc1OCCC1CCCCN1 (stereo not drawn) [Compound 50, 1-{2-Chloro-4-[6-methoxy-7-(2-piperidin-2-yl-ethoxy)-quinolin-4-yloxy]-phenyl}-3-(3,3-dimethyl-butyl)-urea]
2 | 4 | COc1cc2c(Oc3ccc(NC(=O)NCCC4CCCC4)cc3F)ccnc2cc1OCCN1CCCCC1 [Compound 59, 1-(2-Cyclopentyl-ethyl)-3-{3-fluoro-4-[6-methoxy-7-(2-piperidin-1-yl-ethoxy)-quinolin-4-yloxy]-phenyl}-urea]
255 | 244 | COc1cc2c(Oc3ccc(NC(=O)NCCC(C)(C)C)c(Cl)c3)ccnc2cc1OCCN1CCCCCC1 [Compound 74, 1-{4-[7-(2-Azepan-1-yl-ethoxy)-6-methoxy-quinolin-4-yloxy]-2-chloro-phenyl}-3-(3,3-dimethyl-butyl)-urea]
